From publication PMC9688344, “[^225Ac]Ac-SibuDAB for Targeted Alpha Therapy of Prostate Cancer: Preclinical Evaluation and Comparison with [^225Ac]Ac-PSMA-617” (Cancers, 2022)

System: human serum albumin
Test: Albumin binding, ultrafiltration assay in human blood plasma
Assay type: in vitro ADME
Method: The logD values, cell uptake and internalization as well as PSMA-binding affinities (KD values) of [^225Ac]Ac-SibuDAB and [^225Ac]Ac-PSMA-617 (~50 kBq/nmol) were determined according to previously reported protocols (Supplementary Material: Sections S3–S5). Relative albumin-binding affinities were determined using an ultrafiltration assay according to an adapted version of a recently published protocol (Supplementary Material: Section S6).
Table S1. PSMA-binding affinity expressed as KD values determined for SibuDAB and PSMA-617 labeled with actinium-225 or lutetium-177.
Radioligand KD Value [nM] 95% Confidence interval n […]
Purpose: The affinity of [225Ac]Ac-SibuDAB to serum albumin in mouse and human blood plasma was assessed and compared to that of [177Lu]Lu-SibuDAB to determine the impact of the radionuclide on the albumin-binding properties of SibuDAB.
Methods: Relative albumin-binding affinities were determined using an ultrafiltra-tion assay according to a slightly adapted version of a published protocol. The concen-tration of mouse serum albumin (MSA) and human serum albumin (HSA) in samples of mouse and human plasma, respectively, was determined using a DRI-CHEM Analyzer (FUJIFILM, 4000i). […] The activity in the retained protein fraction (A bound), in the filtrate (Afiltrate) and in the filter unit (Afilter) were measured separately in a γ-counter (Perkin Elmer Wallac Wizard 1480). […]

SMILES: CC(C)Cc1ccc(C(C)C(=O)NC(CCN)C(=O)NCCCCC(NC(=O)CN2CCN(CC(=O)[O-])CCN(CC(=O)[O-])CCN(CC(=O)[O-])CC2)C(=O)NCC2CCC(C(=O)NC(Cc3ccc4ccccc4c3)C(=O)NCCCCC(NC(=O)NC(CCC(=O)O)C(=O)O)C(=O)O)CC2)cc1.[225Ac+3] (stereo not shown) [[^225Ac]Ac-SibuDAB]
- relative albumin-binding affinity, higher than for [177Lu]Lu-SibuDAB: 1.4 fold
